From ChEMBL document CHEMBL1201862, “PubChem BioAssay data set” (2004) come the findings set out here.

Molecules are shown by their SMILES. The source made the active and inactive calls.

One assay deals with T1, Leucine aminopeptidase (Plasmodium falciparum 3D7, UniProt Q8IL11).
T1 sequence (Q8IL11 whole entry): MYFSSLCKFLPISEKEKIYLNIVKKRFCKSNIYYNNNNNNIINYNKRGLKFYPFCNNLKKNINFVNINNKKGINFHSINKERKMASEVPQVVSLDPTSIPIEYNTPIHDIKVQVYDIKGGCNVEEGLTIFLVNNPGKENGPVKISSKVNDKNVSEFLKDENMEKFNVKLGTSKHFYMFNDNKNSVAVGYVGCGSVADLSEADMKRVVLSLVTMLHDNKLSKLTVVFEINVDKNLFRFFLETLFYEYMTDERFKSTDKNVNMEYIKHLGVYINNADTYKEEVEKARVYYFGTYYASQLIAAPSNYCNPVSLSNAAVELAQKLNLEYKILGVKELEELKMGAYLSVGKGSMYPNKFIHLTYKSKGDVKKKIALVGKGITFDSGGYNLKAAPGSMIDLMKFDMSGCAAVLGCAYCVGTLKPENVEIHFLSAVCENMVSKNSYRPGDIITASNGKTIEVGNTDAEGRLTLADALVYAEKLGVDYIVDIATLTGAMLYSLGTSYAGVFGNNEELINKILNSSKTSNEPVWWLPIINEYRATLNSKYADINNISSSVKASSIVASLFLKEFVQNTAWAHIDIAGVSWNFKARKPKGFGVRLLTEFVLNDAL
In words: P. falciparum M17LAP inhibitors, primary screen, biochemical, fluorogenic H-Leu-NHMec substrate, 1536-well (AID 1619). In kind it is functional.

Another assay has as its target Aspartyl aminopeptidase (Plasmodium falciparum 3D7, UniProt Q8I2J3). The experiment in a line: Counterscreen for inhibitors of M1 and M17 aminopeptidases: QFRET-based biochemical high throughput dose response assay for inhibitors of the Plasmodium falciparum M18 Aspartyl Aminopeptidase (PFM18AAP). [Related PubChem assays: 1619 (Screening assay (M17LAP inhibitors).), 1445 (Screening assay (M1AAP inhibitors).)]. On the technique in general: A counterscreen serves to expose hits that act by an unwanted route or on another target.

The target in a further assay is Procathepsin L (Homo sapiens, UniProt P07711). In words: cathepsin L inhibitors, dose response, counter-screen for M1/M17 aminopeptidase inhibitor project, biochemical, QFRET, 1536-well (AID 2214).
Sequence of Procathepsin L (P07711 whole entry): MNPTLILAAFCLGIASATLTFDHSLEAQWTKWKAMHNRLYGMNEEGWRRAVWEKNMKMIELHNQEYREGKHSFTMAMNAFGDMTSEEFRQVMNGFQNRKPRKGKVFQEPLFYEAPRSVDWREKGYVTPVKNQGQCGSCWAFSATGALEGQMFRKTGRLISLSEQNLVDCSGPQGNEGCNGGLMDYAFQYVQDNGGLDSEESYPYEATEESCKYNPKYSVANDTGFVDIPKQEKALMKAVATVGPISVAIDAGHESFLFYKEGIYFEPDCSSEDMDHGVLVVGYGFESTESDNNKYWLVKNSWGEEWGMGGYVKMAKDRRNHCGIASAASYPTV
Assay [1] deals with T2, Mannose-6-phosphate isomerase (Homo sapiens, UniProt P34949).
T2 sequence (P34949 whole entry): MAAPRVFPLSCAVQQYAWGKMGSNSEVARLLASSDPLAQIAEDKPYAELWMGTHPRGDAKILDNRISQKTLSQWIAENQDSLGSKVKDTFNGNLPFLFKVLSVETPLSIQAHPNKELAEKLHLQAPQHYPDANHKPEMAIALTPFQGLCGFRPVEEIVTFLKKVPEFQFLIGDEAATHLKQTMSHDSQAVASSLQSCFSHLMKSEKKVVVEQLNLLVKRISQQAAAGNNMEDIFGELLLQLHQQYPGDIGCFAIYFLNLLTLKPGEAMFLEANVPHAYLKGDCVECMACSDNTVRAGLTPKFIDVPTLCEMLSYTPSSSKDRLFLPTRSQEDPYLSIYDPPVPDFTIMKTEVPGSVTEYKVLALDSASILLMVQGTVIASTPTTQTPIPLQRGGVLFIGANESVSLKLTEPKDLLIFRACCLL
The experiment in a line: inhibitors of human PMI, primary screen, biochemical, fluorescence intensity, coupled assay (AID 1209).

For assay [2], the target named is T2, Mannose-6-phosphate isomerase. In words: human PMI inhibitors, high substrate, primary screen, biochemical, fluorescence intensity, high mannose 6-phosphate (AID 1220).
Assay [3] has as its target Eukaryotic translation initiation factor 4E (Mus musculus, UniProt P63073). In words: eIF4E–eIF4G protein interaction inhibitors, dose response, biochemical, TR-FRET (AID 855).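 Also: potency for disrupting eIF4E binding to eIF4GI seen as loss of FRET.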 The assay is classed as functional. (In TR-FRET formats the signal depends on donor and acceptor labels being close together.)
Assay [4] deals with DNA dC->dU-editing enzyme APOBEC-3G (Homo sapiens, UniProt Q9HC16). In words: Dose Response confirmation of small molecule APOBEC3G DNA Deaminase Inhibitors via a fluorescence-based single-stranded DNA deaminase assay. [Related pubchem assays (depositor defined):AID493012, AID493028]. In kind it is functional.
Sequence of DNA dC->dU-editing enzyme APOBEC-3G (Q9HC16 whole entry): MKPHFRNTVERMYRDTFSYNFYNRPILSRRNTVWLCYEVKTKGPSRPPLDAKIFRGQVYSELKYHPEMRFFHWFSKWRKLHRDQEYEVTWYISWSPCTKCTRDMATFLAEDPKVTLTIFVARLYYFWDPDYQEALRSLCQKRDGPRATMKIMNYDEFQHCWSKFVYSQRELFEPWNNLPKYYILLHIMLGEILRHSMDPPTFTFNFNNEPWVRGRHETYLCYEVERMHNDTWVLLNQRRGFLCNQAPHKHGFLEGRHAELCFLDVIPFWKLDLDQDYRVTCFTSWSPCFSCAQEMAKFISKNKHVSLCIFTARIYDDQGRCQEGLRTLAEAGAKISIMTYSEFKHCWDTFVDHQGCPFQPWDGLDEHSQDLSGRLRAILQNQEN
In assay [5] the target is T3, Lysine-specific demethylase 4C (Homo sapiens, UniProt Q9H3R0).
T3 sequence (Q9H3R0 whole entry): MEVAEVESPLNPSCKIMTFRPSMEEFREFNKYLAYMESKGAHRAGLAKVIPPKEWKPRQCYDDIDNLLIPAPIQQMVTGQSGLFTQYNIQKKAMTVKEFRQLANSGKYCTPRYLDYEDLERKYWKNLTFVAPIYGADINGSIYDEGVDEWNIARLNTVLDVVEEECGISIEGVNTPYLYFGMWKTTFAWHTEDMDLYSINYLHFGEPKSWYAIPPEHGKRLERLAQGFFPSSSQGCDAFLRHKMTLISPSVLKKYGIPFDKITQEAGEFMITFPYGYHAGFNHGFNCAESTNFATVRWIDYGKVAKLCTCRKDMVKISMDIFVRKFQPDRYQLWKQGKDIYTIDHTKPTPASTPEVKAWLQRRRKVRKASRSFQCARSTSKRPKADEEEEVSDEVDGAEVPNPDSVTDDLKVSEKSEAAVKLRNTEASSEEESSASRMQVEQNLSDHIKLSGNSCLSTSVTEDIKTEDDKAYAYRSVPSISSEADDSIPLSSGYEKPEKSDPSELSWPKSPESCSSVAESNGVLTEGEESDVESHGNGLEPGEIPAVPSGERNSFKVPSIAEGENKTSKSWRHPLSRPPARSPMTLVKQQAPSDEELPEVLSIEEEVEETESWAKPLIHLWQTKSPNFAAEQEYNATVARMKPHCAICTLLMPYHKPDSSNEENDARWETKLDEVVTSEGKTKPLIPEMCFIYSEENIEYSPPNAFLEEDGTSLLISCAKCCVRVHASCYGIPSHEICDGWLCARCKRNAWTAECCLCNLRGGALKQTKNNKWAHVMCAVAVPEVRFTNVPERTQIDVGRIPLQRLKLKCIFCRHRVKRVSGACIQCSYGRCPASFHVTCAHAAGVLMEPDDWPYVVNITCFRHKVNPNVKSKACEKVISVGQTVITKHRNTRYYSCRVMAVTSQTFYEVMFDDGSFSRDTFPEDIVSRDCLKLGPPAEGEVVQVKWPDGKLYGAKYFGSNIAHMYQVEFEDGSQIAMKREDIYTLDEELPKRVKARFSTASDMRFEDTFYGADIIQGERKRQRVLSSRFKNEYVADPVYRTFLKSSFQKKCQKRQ
In words: GASC-1 (JMJD2C) histone demethylase inhibitors, dose response, biochemical, DELFIA europium, cherry-picked samples (AID 488835). In kind it is functional.

Sequence of Aspartyl aminopeptidase (Q8I2J3 whole entry): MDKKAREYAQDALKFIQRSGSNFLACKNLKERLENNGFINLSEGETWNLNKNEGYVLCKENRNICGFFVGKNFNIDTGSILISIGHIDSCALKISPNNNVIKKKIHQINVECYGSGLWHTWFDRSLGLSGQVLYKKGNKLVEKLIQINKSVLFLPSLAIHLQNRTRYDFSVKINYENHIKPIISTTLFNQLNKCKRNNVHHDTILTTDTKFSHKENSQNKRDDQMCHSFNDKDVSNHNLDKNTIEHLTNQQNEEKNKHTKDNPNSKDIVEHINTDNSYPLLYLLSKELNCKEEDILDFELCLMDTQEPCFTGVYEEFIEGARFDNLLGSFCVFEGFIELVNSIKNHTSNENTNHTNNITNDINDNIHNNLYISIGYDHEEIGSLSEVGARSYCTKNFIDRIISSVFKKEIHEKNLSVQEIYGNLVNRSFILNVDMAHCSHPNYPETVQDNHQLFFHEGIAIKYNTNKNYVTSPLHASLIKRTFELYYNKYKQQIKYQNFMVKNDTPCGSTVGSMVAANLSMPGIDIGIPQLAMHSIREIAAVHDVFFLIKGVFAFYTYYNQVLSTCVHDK
Sequence of Eukaryotic translation initiation factor 4E (P63073 whole entry): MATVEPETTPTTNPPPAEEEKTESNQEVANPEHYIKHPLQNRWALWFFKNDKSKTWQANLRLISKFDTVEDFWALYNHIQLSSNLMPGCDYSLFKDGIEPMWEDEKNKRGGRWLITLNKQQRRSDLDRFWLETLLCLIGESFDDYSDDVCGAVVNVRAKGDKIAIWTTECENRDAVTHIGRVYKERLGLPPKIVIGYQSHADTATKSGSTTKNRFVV

Broadly, the IC50 is the concentration at which inhibition is half-maximal. Consider `COc1cc(NC(=O)CSc2nc3ccccc3cc2C)c(C(=O)O)cc1OC`, for which the IC50 was 1.57 µM (active) on Leucine aminopeptidase, > 73.5 µM (not active) against Aspartyl aminopeptidase and > 59.6 µM (not active) on Procathepsin L.

Broadly, the AC50 is the concentration giving half of the maximal activity seen. `COc1ccc(/N=c2\ssnc2Cl)cc1`: the half-inhibitory concentration (IC50) in assay [1] is 14.4 µM (active); in assay [2], 21.6 µM (active); in assay [3], 43.2 µM (inactive); in assay [4], 9.96 µM (active). Also, in assay [5], the AC50 is 39.1 µM (active).
